From EP0110955B1, “BRAIN-SPECIFIC DRUG DELIVERY” (UNIVERSITY OF FLORIDA, priority 1982, dated 1983)

Key:
[1] = Enzymatic hydrolytic cleavage and rate of oxidation of compound 5c in human plasma (HPLC); assay type: in vitro ADME; details: 80% plasma, 37°C, pseudo first order, read-out: apparent half-lives for the disappearance
Description: (§1) A high pressure liquid chromatography (HPLC) method was developed for the studies of the degradation of the dihydropyridine dopamine derivative. The chromatographic analysis was performed on a component system consisting of a Waters Associate Model 6000A solvent delivery system, Model U6K injector and Model 440 dual channel absorbance detector operated at 254 and 280 nm. A 30 cm x 3.9 mm (internal diameter) reverse phase µBondapak C18 column (Waters Associates), operated at ambient temperature, was used for all separations. The mobile phase used for the separation of the dihydropyridine derivative, its degradation products and oxidation products consisted of 0.005 M solution of 1-heptanesul- fonic acid sodium salt (PIC B-7 Eastman Kodak) in CH3CN; 0.01 M aqueous dibasic ammonium phosphate (2.5:1). A peak was always shown at a retention time of 2.2 min which is believed to be a monodeacylated dihydropyridine derivative, since it eventually did result in 6a.
The freshly collected plasma used was obtained at the Civitan Regional Blood Center, Inc. (Gainesville, Florida) and contained about 80% plasma diluted with anticoagulant citrate phosphate dextrose solution U.S.P. The plasma was stored in a refrigerator and used the next day. […] When all samples had been collected, they were centrifuged and the supernatants were filtered through Whatman 1 filter papers and analyzed to HPLC.

[2] = Enzymatic hydrolytic cleavage and rate of oxidation of compound 5c in human blood (HPLC); assay type: in vitro ADME; details: whole citrated blood, 37°C, pseudo first order, read-out: apparent half-lives for the disappearance
Description: as §1
The freshly collected heparinized blood was obtained at the Civitan Regional Blood Center, Inc. (Gainesville, Florida). The blood was stored in a refrigerator and used the next day. […] When all samples had been collected, they were centrifuged and the supernatants were filtered using Whatman 4 filter paper and analyzed by HPLC.

[3] = Enzymatic hydrolytic cleavage and rate of oxidation of compound 5c in rat brain homogenate (HPLC); assay type: in vitro ADME, Sprague-Dawley rats; details: rat, pH 7.4; 20% brain homogenate, 37°C, pseudo first order; read-out: apparent half-lives for the disappearance
Description: as §1
The brain homogenate was prepared by the following method. Five Sprague-Dawley rats were killed by decapitation and the brains were removed, weighed (total weight 9.85 g) and homogenized in 49.3 ml of aqueous 0.11 M phosphate buffer, pH 7.4. The homogenate was centrifuged and the supernatant was used for the test. […] Each supernatant was filtered through two Whatman 1 filter papers and analyzed by HPLC.

[4] = Enzymatic hydrolytic cleavage and rate of oxidation of compound 5c in rat liver homogenate (HPLC); assay type: in vitro ADME, Sprague-Dawley rats; details: rat, pH 7.4; 20% liver homogenate, 37°C, pseudo first order; read-out: apparent half-lives for the disappearance
Description: as §1
The liver homogenate was prepared by the following method. Three Sprague-Dawley rats were killed by decapitation and the livers were removed, weighed and homogenized by tissue homogenizer in 0.11 M aqueous phosphate buffer, pH 7.4, to make 20% liver homogenate. […] When all samples had been collected, they were centrifuged and each supernatant was filtered through Whatman 1 filter paper and analyzed by HPLC.

[5] = Concentration of compound 6a in brain and blood after parenteral administration of 5c; assay type: in vivo, Male Sprague-Dawley rats; details: after administration of 5c, rat
Description: The dihydropyridine derivative (5c) was then selected for the in vivo study. A solution in DMSO (dimethylsulfoxide) was injected through the jugular vein to a group of male Sprague-Dawley rats which were then sacrificed at various time intervals; their blood and brains were analyzed for the quaternary percursor of dopamine (6a). The in vivo dopaminergic activities of the selected compounds 5c vs. 6a were then determined.
Male Sprague-Dawley rats of average weight of 150 ± 10g were used. The rats were anesthetized with IM injection of Inovar and the jugular was exposed. Compound 5c was injected intrajugularly in the form of 10% solution in DMSO at a dose of 64.2 mg/kg (equivalent to 50 mg/kg compound 6a). The injection was given at a rate of 24 µl/min using a calibrated infusion pump. […] The weighed brain was homogenized with 0.5 ml of distilled water, 3 ml of acetonitrile was added and the mixture was rehomogenized thoroughly, centrifuged, filtered and then analyzed for compound 6a using the HPLC method. The tubes containing the blood were shaken vigorously, centrifuged, decanted and also analyzed for compound 6a using the HPLC method. Quantitation was done by using a recovery standard curve obtained by introducing a known amount of 6a in either brain homogenate or blood and then treated in the same manner. […]

[6] = test system: brain-dopamine concentrations; experiment: Changes in brain-dopamine concentrations after intrajugular administration of 5c; assay type: in vivo; details: 5c administered intrajugularly, some of the rats, others practically none
Description: To determine whether dopamine itself was finally released in the brain upon completion of the aforesaid complex delivery process, 5c was administered intrajugularly and changes in brain-dopamine concentrations following that administration were studied. […] It is known that dopamine and its agonists decrease prolactin secretion following their binding to stereospecific receptors located on lactophors in the anterior pituitary (AP) gland [G.P. Mueller, J.W. Simpkins, J. Meites and K.E. Moore, Neuroendocrinology, 20, 121 (1976); W. Wuttke, E. Cassell and J Meites, Endocrinology, 88, 737 (1971); J.A. Clemens, E.B. Smalstig and C.J. Shaar, Acta Endocrinol., 79, 230 (1975)]. This effect is dose- dependent and it can also be observed in vitro, incubating anterior pituitaries with dopamine or its agonists [R.M. MacLeod Ed. L. Martini and W.F. Ganong, Raven Press].

half-life at 3050 µM [1]: 51 min
half-life at 900 µM [2]: 18 min
half-life at 1800 µM [3]: 17 min
half-life at 900 µM [4]: 6 min
SMILES: CN1C=CCC(C(=O)NCCc2ccc(OC(=O)C(C)(C)C)c(OC(=O)C(C)(C)C)c2)=C1 [5c, 1-Methyl-3-(N-[β-(3,4-dipivalyloxyphenyl)-ethyl]}carbamoyl-1,4-dihydropyridine]
formation of O-methyl metabolites (9, 10) in the brain [5]: No formation of O-methyl metabolites (9, 10) could be detected
increase in the dopamine concentrations [6]: up to threefold increase
